These results are taken from patent US20200172483A1, “HETEROCYCLIC SMALL MOLECULE MODULATORS OF HUMAN STING” (Curadev Pharma Limited, priority 2017, published 2020).

Structures are written as SMILES. Like-named read-outs stand apart in the source and are kept apart here.

The target of assay [1] is T1, hSTING (H232) (Homo sapiens, UniProt Q86WV6).
T1 construct: host or cells: HEK293T
In words: Luciferase reporter assay in HEK293T-hSTING-Luciferase cells (H232/REF polymorph). The format is cell-based. The conditions noted are these: EC50 range. The source says:
(§1) • a) Stable STING expressing cells—Stable HEK293T STING-expressing cell lines were generated using plasmids purchased from Invivogen, CA, USA, that contain STING cDNA cloned into the pUNO-1 vector under hEF1-HTLV promoter and containing the Blasticidin selection cassette. The plasmids hSTING (R232), hSTING (H232), hSTING (HAQ) were directly procured from Invivogen while hSTING (AQ) and hSTING (Q) were derived from hSTING (HAQ) and hSTING (R232) plasmids respectively by using a PCR based site directed mutagenesis method. These vectors were individually transfected into HEK293T cells using Lipofectamine (Invitrogen) and transfected cells were selected under Blasticidin selection. These transfected cells were further subjected to clonal selection using the limiting dilution method to obtain clonally pure populations of HEK cells transfected with each of the above mentioned human STING variants. Only those clones were selected in which ligand independent activation of STING was minimal. • b) Stable Luciferase reporter gene expressing cells—Stable HEK293T Luciferase reporter gene expressing cell lines were generated using pCDNA4 plasmids under an IRF-inducible promoter. This promoter is comprised of five tandem interferon-stimulated response elements (ISRE) fused to an ISG54 minimal promoter. This vector was transfected into HEK293T cells using Lipofectamine (Invitrogen) and transfected cells were selected under Zeocin selection. These transfected cells were further subjected to clonal selection using the limiting dilution method to obtain clonally pure populations of HEK cells transfected the Luciferase reporter construct. Only those clones were selected in which ligand independent induction of luciferase was minimal.
(§2) 5×10^5 clonally selected HEK293T-hSTING-Luciferase cells were seeded in 384-well plates in growth medium and stimulated with novel compounds. After 20 hr of stimulation supernatant were removed and secretary reporter gene activity were measured using the Quanti-Luc detection system (Invivogen) on a Spectramax i3X luminometer.
(§3) The 5 major polymorphisms of human STING are shown in FIG. 1, with their prevalence in human populations indicated.

Assay [2] concerns NF-κB pathway. The experiment in a line: Reporter gene expression assay for NFκB axis in THP1-Dual cells (secreted SEAP). The assay is classed as cell-based, human. The following applies: 20 hr stimulation, QUANTI-Blue SEAP, EC50 range, read-out: THP-NFKB activity. The method, then: (§4) THP1-Dual™ cells (Invivogen) were derived from the human THP-1 monocyte cell line by stable integration of two inducible reporter constructs. As a result, THP1-Dual™ cells allow the simultaneous study of the NF-κB pathway, by monitoring the activity of secreted SEAP, and the IRF pathway, by assessing the activity of a secreted luciferase (Lucia). […] THP1-Dual™ cells were seeded in 384-well plates in growth medium and stimulated with novel compounds. After 20 hr of stimulation supernatant were removed and reporter proteins were readily measured in the cell culture supernatant using QUANTI-Blue™ (Invivogen), a SEAP detection reagent, and QUANTI-Luc™ (Invivogen), a luciferase detection reagent on a Spectramax i3X luminometer. EC50 value ranges for exemplary compounds tested in the above assay are given.
Background: In a reporter assay the amount or activity of a reporter protein is the signal.

Assay [3] has as its system IRF pathway. The experiment in a line: Reporter gene expression assay for IRF axis in THP1-Dual cells (secreted Lucia luciferase). The format is cell-based, human. The conditions noted are these: 20 hr stimulation, QUANTI-Luc, EC50 range, read-out: THP-IRF activity. The method, then:
as §4

In assay [4] the target is T2, hSTING (HAQ) (Homo sapiens, UniProt Q86WV6, G230A/H232R/R293Q/R71H).
T2 construct: host or cells: HEK293T
The experiment in a line: Luciferase reporter assay in HEK293T-hSTING-Luciferase cells (HAQ polymorph). The assay is classed as cell-based. The following applies: EC50 range.
From the text: as §1, §2, §3

Assay [5] deals with T3, WT/R232 STING protein (Homo sapiens, UniProt Q86WV6, H232R).
T3 construct: host or cells: HEK293T
In words: Luciferase reporter assay in HEK293T-hSTING-Luciferase cells (R232). The conditions noted are these: 20 hr stimulation, EC50 range. The assay is classed as cell-based. In short, it runs like this: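 Clonal HEK293T cells stably expressing human STING R232 plus an ISRE/ISG54-driven secreted luciferase reporter, stimulated with compounds for 20 hr. Luciferase in supernatant read by luminescence; activity given as fold-induction over baseline.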

T2 sequence (Q86WV6 whole entry R71H/G230A/H232R/R293Q): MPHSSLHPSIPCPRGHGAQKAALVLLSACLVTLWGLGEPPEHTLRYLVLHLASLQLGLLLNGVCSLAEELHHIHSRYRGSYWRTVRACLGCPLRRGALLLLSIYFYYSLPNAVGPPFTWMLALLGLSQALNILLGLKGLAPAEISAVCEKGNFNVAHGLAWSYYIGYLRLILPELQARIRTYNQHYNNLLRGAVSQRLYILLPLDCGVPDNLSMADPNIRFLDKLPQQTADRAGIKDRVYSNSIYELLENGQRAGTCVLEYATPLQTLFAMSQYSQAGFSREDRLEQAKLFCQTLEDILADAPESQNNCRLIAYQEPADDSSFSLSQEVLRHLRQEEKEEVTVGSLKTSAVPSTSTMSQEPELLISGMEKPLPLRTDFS
T3 sequence (Q86WV6 whole entry H232R): as the sequence (Q86WV6 whole entry R71H/G230A/H232R/R293Q) above, with H71R, A230G, Q293R counted along it
T1 sequence (Q86WV6 whole entry): as the sequence (Q86WV6 whole entry R71H/G230A/H232R/R293Q) above, with H71R, A230G, R232H, Q293R counted along it

Turning to `CC1(C)C(=O)N(Cc2ccccc2)c2cc(C(=O)NCc3c(F)cc(F)cc3F)ccc21` [Example 11, 1-benzyl-3,3-dimethyl-2-oxo-N-(2,4,6-trifluorobenzyl)indoline-6-carboxamide], the EC50 was 1 to 10 µM in assay [1]; 1 to 10 µM in assay [2] (Homo sapiens, THP1-Dual, 20 h); more than 10 µM in assay [3] (Homo sapiens, THP1-Dual, 20 h); 1 to 10 µM in assay [4]; not above 1 µM in assay [5].
`CC1(C)C(=O)N(Cc2cccc(C(N)=O)c2)c2cc(C(=O)NCc3c(F)cc(F)cc3F)ccc21` [Example 37, 1-(3-carbamoylbenzyl)-3,3-dimethyl-2-oxo-N-(2,4,6-trifluorobenzyl)indoline-6-carboxamide]: the EC50 in assay [1] is 1 to 10 µM; in assay [2] (Homo sapiens, THP1-Dual, 20 h) it was more than 10 µM; in assay [3] (Homo sapiens, THP1-Dual, 20 h), more than 10 µM; in assay [4], more than 10 µM; in assay [5], 1 to 10 µM.
As for `CC1(C)C(=O)N(Cc2cc(F)cc(F)c2)c2cc(C(=O)NCc3ccc(N=[N+]=[N-])cc3)ccc21` [Example 48, N-(4-azidobenzyl)-1-(3,5-difluorobenzyl)-3,3-dimethyl-2-oxoindoline-6-carboxamide], the EC50 was 1 to 10 µM in assay [1]; more than 10 µM in assay [2] (Homo sapiens, THP1-Dual, 20 h); more than 10 µM in assay [3] (Homo sapiens, THP1-Dual, 20 h); 1 to 10 µM in assay [4]; 1 to 10 µM in assay [5].
As for `CC1(C#N)C(=O)N(Cc2c(F)cccc2Cl)c2cc(C(=O)NCc3c(F)cc(F)cc3F)ccc21` (stereo not shown) [Example 166, 1-(2-chloro-6-fluorobenzyl)-3-cyano-3-methyl-2-oxo-N-(2,4,6-trifluorobenzyl)indoline-6-carboxamide], the EC50 in assay [1] was 1 to 10 µM; in assay [2], more than 10 µM; in assay [3] it was more than 10 µM; in assay [4] it was 1 to 10 µM; in assay [5] it was not above 1 µM.
Consider `CC1(C)C(=O)N(Cc2ccc(N=[N+]=[N-])cc2)c2cc(C(=O)NCc3c(F)cc(F)cc3F)ccc21` [Example 56, 1-(4-azidobenzyl)-3,3-dimethyl-2-oxo-N-(2,4,6-trifluorobenzyl)indoline-6-carboxamide], for which the EC50 was 1 to 10 µM in assay [1]; more than 10 µM in assay [2] (Homo sapiens, THP1-Dual, 20 h); more than 10 µM in assay [3] (Homo sapiens, THP1-Dual, 20 h); 1 to 10 µM in assay [4]; not above 1 µM in assay [5].
As for `CC1(C)CN(C(=O)Cc2ccccc2)c2cc(C(=O)NCc3c(F)cc(F)cc3F)ccc21` [Example 136, 3,3-dimethyl-1-(2-phenylacetyl)-N-(2,4,6-trifluorobenzyl)indoline-6-carboxamide], the EC50 is more than 10 µM in assay [1]; more than 10 µM in assay [2] (Homo sapiens, THP1-Dual, 20 h); more than 10 µM in assay [3] (Homo sapiens, THP1-Dual, 20 h); 1 to 10 µM in assay [4]; 1 to 10 µM in assay [5].
For `Cc1ccc(CNC(=O)c2ccc3c(c2)N(Cc2c(C)cccc2F)C(=O)C3(C)C)o1` [Example 63, 1-(2-fluoro-6-methylbenzyl)-3,3-dimethyl-N-((5-methylfuran-2-yl)methyl)-2-oxoindoline-6-carboxamide], the EC50 in assay [1] was 1 to 10 µM; in assay [2] (Homo sapiens, THP1-Dual, 20 h), more than 10 µM; in assay [3] (Homo sapiens, THP1-Dual, 20 h) it was more than 10 µM; in assay [4] it was 1 to 10 µM; in assay [5] it was not above 1 µM.
As to `Cc1nn(C)c(CN2C(=O)C(C)(C)c3ccc(C(=O)NCc4cc5cc(F)ccc5o4)cc32)c1F` [Example 115, 1-((4-fluoro-1,3-dimethyl-1H-pyrazol-5-yl)methyl)-N-((5-fluorobenzofuran-2-yl)methyl)-3,3-dimethyl-2-oxoindoline-6-carboxamide], the EC50 in assay [1] is not above 1 µM; in assay [2] (Homo sapiens, THP1-Dual, 20 h), 1 to 10 µM; in assay [3] (Homo sapiens, THP1-Dual, 20 h), 1 to 10 µM; in assay [4] it was not above 1 µM; in assay [5], not above 1 µM.
Take `COc1cccc(F)c1CN1C(=O)C(C)(C)c2ccc(C(=O)NCc3c(F)cc(F)cc3F)cc21` [Example 102, 1-(2-fluoro-6-methoxybenzyl)-3,3-dimethyl-2-oxo-N-(2,4,6-trifluorobenzyl)indoline-6-carboxamide]: the EC50 in assay [1] is not above 1 µM; in assay [2] (Homo sapiens, THP1-Dual, 20 h), not above 1 µM; in assay [3] (Homo sapiens, THP1-Dual, 20 h), not above 1 µM; in assay [4], not above 1 µM; in assay [5] it was not above 1 µM.
With `CC1(C)C(=O)N(Cc2cccc(Cl)c2)c2cc(C(=O)NCc3c(F)cc(F)cc3F)ccc21` [Example 19, 1-(3-chlorobenzyl)-3,3-dimethyl-2-oxo-N-(2,4,6-trifluorobenzyl)indoline-6-carboxamide], the EC50 in assay [1] was 1 to 10 µM; in assay [2] (Homo sapiens, THP1-Dual, 20 h) it was 1 to 10 µM; in assay [3] (Homo sapiens, THP1-Dual, 20 h), more than 10 µM; in assay [4], 1 to 10 µM; in assay [5], not above 1 µM.
As for `CC1(C)C(=O)N(Cc2cccc(F)c2)c2cc(C(=O)NCc3c(F)cc(F)cc3F)ccc21` [Example 14, 1-(3-fluorobenzyl)-3,3-dimethyl-2-oxo-N-(2,4,6-trifluorobenzyl)indoline-6-carboxamide], the EC50 in assay [1] is 1 to 10 µM; in assay [2] (Homo sapiens, THP1-Dual, 20 h) it was 1 to 10 µM; in assay [3] (Homo sapiens, THP1-Dual, 20 h) it was 1 to 10 µM; in assay [4], 1 to 10 µM; in assay [5], not above 1 µM.
With `CC(C)C1(Cl)C(=O)N(Cc2c(F)cccc2Cl)c2cc(C(=O)NCc3c(F)cc(F)cc3F)ccc21` (stereo not shown) [Example 157, 3-chloro-1-(2-chloro-6-fluorobenzyl)-3-isopropyl-2-oxo-N-(2,4,6-trifluorobenzyl)indoline-6-carboxamide], the EC50 in assay [1] is 1 to 10 µM; in assay [2] (Homo sapiens, THP1-Dual, 20 h) it was more than 10 µM; in assay [3] (Homo sapiens, THP1-Dual, 20 h) it was more than 10 µM; in assay [4], 1 to 10 µM; in assay [5], not above 1 µM.
With `Cc1nn(C)c(CN2C(=O)C(C)(C)c3ccc(C(=O)NCc4c(F)cc(F)cc4F)cc32)c1Br` [Example 106, 1-((4-bromo-1,3-dimethyl-1H-pyrazol-5-yl)methyl)-3,3-dimethyl-2-oxo-N-(2,4,6-trifluorobenzyl)indoline-6-carboxamide], the EC50 was not above 1 µM in assay [1]; 1 to 10 µM in assay [2] (Homo sapiens, THP1-Dual, 20 h); 1 to 10 µM in assay [3] (Homo sapiens, THP1-Dual, 20 h); not above 1 µM in assay [4]; not above 1 µM in assay [5].
Regarding `Cc1ccc(CNC(=O)c2ccc3c(c2)N(Cc2c(F)cccc2F)C(=O)C3(C)C)o1` [Example 50, 1-(2,6-difluorobenzyl)-3,3-dimethyl-N-((5-methylfuran-2-yl)methyl)-2-oxoindoline-6-carboxamide], the EC50 in assay [1] was 1 to 10 µM; in assay [2] (Homo sapiens, THP1-Dual, 20 h), more than 10 µM; in assay [3] (Homo sapiens, THP1-Dual, 20 h), more than 10 µM; in assay [4], 1 to 10 µM; in assay [5] it was 1 to 10 µM.
Take `CC1(C#N)C(=O)N(Cc2cc(F)cc(F)c2)c2cc(C(=O)NCc3c(F)cc(F)cc3F)ccc21` (stereo not shown) [Example 167, 3-cyano-1-(3,5-difluorobenzyl)-3-methyl-2-oxo-N-(2,4,6-trifluorobenzyl)indoline-6-carboxamide]: the EC50 in assay [2] and in assay [3] was 1 to 10 µM throughout.
As to `CC1(C#N)C(=O)N(Cc2cc(F)cc(F)c2)c2cc(C(=O)NCc3c(F)cc(F)cc3F)ccc21` (stereo not shown) [Example 168, 3-cyano-1-(3,5-difluorobenzyl)-3-methyl-2-oxo-N-(2,4,6-trifluorobenzyl)indoline-6-carboxamide], the EC50 in assay [2] and in assay [3] was more than 10 µM throughout.
As for `CC1(C#N)C(=O)N(Cc2cc(F)cc(F)c2)c2cc(C(=O)NCc3c(F)cc(F)cc3F)ccc21` (stereo not shown) [Example 163, 3-cyano-1-(3,5-difluorobenzyl)-3-methyl-2-oxo-N-(2,4,6-trifluorobenzyl)indoline-6-carboxamide], the EC50 in assay [2] and in assay [3] was 1 to 10 µM throughout.
